Assay [1] addresses T1, Corticotropin-releasing factor receptor 2/Corticotropin-releasing factor-binding protein (Homo sapiens, UniProt P24387+Q13324).
T1 sequence (Q13324 whole entry): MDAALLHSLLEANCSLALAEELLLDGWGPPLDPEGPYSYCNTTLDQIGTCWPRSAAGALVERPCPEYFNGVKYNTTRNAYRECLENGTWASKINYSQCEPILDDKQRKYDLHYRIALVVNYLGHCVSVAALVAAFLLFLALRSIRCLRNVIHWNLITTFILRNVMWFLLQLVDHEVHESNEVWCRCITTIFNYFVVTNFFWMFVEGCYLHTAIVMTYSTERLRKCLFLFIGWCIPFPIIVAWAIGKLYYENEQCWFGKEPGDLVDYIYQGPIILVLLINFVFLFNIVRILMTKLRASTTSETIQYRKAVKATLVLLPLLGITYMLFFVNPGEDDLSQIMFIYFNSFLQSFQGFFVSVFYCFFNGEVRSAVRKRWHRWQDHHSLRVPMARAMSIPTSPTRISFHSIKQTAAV
T1 sequence (P24387 whole entry): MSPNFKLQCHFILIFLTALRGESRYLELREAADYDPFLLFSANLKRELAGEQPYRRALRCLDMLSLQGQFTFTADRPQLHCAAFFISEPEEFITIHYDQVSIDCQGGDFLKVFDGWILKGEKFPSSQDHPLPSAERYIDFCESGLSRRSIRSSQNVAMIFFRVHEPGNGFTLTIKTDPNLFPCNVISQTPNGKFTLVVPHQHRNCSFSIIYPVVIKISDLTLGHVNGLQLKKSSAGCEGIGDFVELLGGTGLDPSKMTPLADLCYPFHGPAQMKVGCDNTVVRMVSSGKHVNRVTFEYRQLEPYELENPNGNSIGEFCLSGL
Put plainly: Dose Response confirmation of uHTS hits for small molecule antagonists of the CRF-binding protein and CRF-R2 receptor complex. Type of assay: functional. Particulars: read-out: IC50_Mean.

In assay [2] the target is T1, Corticotropin-releasing factor receptor 2/Corticotropin-releasing factor-binding protein. Put plainly: activators of CRF receptor 2 with binding protein – uHTS hits, confirmation (AID 602473). In kind it is functional. The note with it: read-out: EC50_Mean.
Assay [3] can be described thus: blockers of CRF-binding protein–CRF-R2 complex – cell-based, uHTS hits, 384-well, dose response (AID 651639). In kind it is functional, Homo sapiens. The note with it: read-out: IC50_Mean.
Assay [4] has as its target T2, Fatty acid synthase (Homo sapiens, UniProt P49327). The assay can be described thus: inhibition of human FAS-TE enzyme activity – biochemical, endpoint fluorescence intensity, uHTS hits, dose response (AID 624327).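 Further: fluorescence from hydrolysis of an O-methyl fluorescein acyl ester substrate by the enzyme.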 Type of assay: functional.
Assay [5] concerns the target T2, Fatty acid synthase. Put plainly: inhibition of human FAS-TE enzyme activity – biochemical, kinetic fluorescence intensity, dose response (AID 624326).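 Further: rate of fluorescence rise from hydrolysis of a fluorogenic O-methyl fluorescein ester substrate.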 In kind it is functional.
Assay [6] can be described thus: Trypanosoma cruzi growth suppression in host cells – NIH3T3 host cells, beta-gal luminescence, confirmation (AID 2044).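 Further: intracellular parasites grown in NIH/3T3 mouse fibroblasts as host cells; luminescent beta-galactosidase reporter signal from transgenic T. cruzi replicating inside host cells; inhibitors lower the luminescence signal.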 Type of assay: functional, cell-based.
Assay [7] can be described thus: NIH3T3 cell viability loss – ATP luminescence, mouse fibroblasts, counter-screen, dose response (AID 2010).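 Further: cells exposed to compound for about 90 hours before reading.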 Type of assay: functional, cell-based.
Assay [8] addresses T3, DNA repair and recombination protein RAD54-like (Homo sapiens, UniProt Q92698).
T3 sequence (Q92698 whole entry): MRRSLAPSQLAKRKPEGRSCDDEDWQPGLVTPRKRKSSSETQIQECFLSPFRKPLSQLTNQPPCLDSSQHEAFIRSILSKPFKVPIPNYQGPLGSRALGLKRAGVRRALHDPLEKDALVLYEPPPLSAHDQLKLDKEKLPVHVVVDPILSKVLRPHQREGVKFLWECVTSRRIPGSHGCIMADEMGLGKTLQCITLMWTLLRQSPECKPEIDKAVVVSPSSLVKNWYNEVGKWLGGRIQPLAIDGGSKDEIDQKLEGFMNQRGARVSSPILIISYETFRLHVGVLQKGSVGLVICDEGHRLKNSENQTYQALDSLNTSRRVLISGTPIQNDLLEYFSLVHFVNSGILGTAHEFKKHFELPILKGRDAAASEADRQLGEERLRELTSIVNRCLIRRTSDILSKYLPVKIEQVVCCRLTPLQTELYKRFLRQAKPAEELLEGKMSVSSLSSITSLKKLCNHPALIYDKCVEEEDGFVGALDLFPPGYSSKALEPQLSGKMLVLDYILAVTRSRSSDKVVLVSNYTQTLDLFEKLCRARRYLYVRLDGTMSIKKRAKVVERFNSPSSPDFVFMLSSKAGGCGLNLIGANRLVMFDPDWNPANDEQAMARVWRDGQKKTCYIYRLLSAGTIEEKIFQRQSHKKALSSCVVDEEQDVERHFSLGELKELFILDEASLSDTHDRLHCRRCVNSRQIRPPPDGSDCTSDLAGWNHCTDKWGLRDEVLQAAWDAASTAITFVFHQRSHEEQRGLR
Put plainly: RAD54 Holliday junction migration blockers – biochemical, fluorescence, cherry-picked samples, dose series, confirmation (AID 651657). In kind it is functional.

The nature of assay [9]: cells.
Assay [10] has as its target T4, Sentrin-specific protease 8 (Homo sapiens, UniProt Q96LD8).
T4 sequence (Q96LD8 whole entry): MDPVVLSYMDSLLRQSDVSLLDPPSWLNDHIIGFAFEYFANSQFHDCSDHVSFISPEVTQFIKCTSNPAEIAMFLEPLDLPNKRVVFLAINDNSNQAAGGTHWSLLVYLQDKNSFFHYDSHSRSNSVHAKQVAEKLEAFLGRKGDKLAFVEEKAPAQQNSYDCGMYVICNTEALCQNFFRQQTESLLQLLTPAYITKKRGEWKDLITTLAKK
In kind it is functional.

For assay [11], the target named is T4, Sentrin-specific protease 8. Type of assay: functional. This is another data set of the same source.
In assay [12] the target is T5, Rac GTPase-activating protein 1 (Homo sapiens, UniProt Q9H0H5).
T5 sequence (Q9H0H5 whole entry): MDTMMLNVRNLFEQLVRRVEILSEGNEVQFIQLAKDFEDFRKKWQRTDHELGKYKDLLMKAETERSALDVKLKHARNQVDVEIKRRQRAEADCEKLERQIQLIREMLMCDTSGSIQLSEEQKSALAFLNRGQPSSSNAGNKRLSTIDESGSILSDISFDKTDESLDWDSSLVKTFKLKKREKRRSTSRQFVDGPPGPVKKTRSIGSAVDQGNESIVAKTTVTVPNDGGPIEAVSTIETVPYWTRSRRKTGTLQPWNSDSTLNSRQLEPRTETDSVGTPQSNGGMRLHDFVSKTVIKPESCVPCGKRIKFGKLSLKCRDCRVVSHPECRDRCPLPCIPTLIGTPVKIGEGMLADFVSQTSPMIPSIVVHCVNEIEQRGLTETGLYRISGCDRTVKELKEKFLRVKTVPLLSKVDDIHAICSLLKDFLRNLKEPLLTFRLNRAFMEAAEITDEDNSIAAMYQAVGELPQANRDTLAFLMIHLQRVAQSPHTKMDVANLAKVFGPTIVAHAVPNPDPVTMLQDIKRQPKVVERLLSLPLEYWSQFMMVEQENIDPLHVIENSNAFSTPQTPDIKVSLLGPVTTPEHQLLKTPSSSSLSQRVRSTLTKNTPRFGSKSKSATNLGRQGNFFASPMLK
The assay can be described thus: blockers of MgcRacGAP-driven Rac1 GTP hydrolysis – biochemical, ADP Hunter fluorescence, primary and confirmatory, confirmation (AID 624330). In kind it is functional.

The nature of assay [13]: viability of PTEN-deleted HCT116 cells – cell-based, HCT116 PTEN knockout, dose response (AID 1047).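 Further: HCT116 colon tumor cells with PTEN knocked out; cells exposed to compound for 60 hours before readout; potency for loss of cell viability measured by luminescence.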 Type of assay: functional.
Assay [14] in a line: viability of HCT116 lacking mutant beta-catenin – cell-based, human colon tumor, dose response (AID 1045).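 Further: HCT116 colon tumor cells with beta catenin knocked out; cells exposed to compound for 60 hours.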 Type of assay: functional.
Assay [15] concerns the target T6, Ubiquitin-conjugating enzyme E2 N (Homo sapiens, UniProt P61088).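 Further: Dose-response confirmation in a TR-FRET assay detecting UBC13-driven polyubiquitin chain formation, inhibition measured.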
T6 sequence (P61088 whole entry): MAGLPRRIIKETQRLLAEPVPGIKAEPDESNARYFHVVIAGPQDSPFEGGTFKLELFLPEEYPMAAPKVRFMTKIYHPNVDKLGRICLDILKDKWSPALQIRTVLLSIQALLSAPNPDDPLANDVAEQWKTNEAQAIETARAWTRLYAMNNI
In kind it is functional.

Assay [16] addresses Eukaryotic translation initiation factor 4E (Mus musculus, UniProt P63073). The assay can be described thus: blockers of eIF4G binding by eIF4E – biochemical, TR-FRET, dose response (AID 855).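 Further: potency for disrupting eIF4E binding to eIF4GI seen as loss of FRET.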 In kind it is functional.
Assay [17] in a line: HEK-293T viability loss after treatment – luminescence, T-cell screen hits, cytotoxicity control for TCR NF-kB inhibitor project, dose response (AID 489026).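 Further: cells exposed to compound about 14 hours before the viability readout.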 Type of assay: functional, cell-based.
Assay [18] addresses Heat shock protein HSP 90-alpha (Homo sapiens, UniProt P07900). In kind it is functional, organism-based.
For assay [19], the target named is Melanocortin receptor 4 (Homo sapiens, UniProt P32245). Type of assay: functional, cell-based.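 Further: Cell-based assay with luminescence read-out, confirmatory dose-response testing for agonist activity of biased ligands at MC4R; human U2OS cells with tagged receptor and beta-arrestin; potency of agonists that increase receptor coupling to beta-arrestin.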
Chain of Melanocortin receptor 4 (P32245 whole entry): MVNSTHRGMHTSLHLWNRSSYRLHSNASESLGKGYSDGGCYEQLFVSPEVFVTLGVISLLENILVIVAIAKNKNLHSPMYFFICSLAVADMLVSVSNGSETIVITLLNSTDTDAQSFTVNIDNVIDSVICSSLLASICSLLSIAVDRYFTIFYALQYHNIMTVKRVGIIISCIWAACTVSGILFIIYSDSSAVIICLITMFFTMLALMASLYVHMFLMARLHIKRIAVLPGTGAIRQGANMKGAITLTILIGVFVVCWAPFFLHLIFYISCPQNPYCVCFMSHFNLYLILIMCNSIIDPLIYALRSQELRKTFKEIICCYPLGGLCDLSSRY
Assay [20] can be described thus: activation of miR-122 Renilla sensor silencing – cell-based, Huh7 psiCHECK-miR122, Renilla luciferase, cherry-picked, dose response (AID 651956).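 Further: huh7 hepatoma cells stably carrying a psiCHECK-2 miR-122 sensor plasmid; renilla luciferase signal reporting endogenous miR-122 activity after 48 h compound exposure.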 In kind it is functional.
Assay [21] can be described thus: general mammalian cell viability loss – inhibitor set, cherry-pick, set 2, cytotoxicity control for miR-122 modulator project, dose response (AID 720697). In kind it is functional, cell-based.

SMILES strings stand for the structures. The source made the active and inactive calls.

T2 sequence (P49327 whole entry): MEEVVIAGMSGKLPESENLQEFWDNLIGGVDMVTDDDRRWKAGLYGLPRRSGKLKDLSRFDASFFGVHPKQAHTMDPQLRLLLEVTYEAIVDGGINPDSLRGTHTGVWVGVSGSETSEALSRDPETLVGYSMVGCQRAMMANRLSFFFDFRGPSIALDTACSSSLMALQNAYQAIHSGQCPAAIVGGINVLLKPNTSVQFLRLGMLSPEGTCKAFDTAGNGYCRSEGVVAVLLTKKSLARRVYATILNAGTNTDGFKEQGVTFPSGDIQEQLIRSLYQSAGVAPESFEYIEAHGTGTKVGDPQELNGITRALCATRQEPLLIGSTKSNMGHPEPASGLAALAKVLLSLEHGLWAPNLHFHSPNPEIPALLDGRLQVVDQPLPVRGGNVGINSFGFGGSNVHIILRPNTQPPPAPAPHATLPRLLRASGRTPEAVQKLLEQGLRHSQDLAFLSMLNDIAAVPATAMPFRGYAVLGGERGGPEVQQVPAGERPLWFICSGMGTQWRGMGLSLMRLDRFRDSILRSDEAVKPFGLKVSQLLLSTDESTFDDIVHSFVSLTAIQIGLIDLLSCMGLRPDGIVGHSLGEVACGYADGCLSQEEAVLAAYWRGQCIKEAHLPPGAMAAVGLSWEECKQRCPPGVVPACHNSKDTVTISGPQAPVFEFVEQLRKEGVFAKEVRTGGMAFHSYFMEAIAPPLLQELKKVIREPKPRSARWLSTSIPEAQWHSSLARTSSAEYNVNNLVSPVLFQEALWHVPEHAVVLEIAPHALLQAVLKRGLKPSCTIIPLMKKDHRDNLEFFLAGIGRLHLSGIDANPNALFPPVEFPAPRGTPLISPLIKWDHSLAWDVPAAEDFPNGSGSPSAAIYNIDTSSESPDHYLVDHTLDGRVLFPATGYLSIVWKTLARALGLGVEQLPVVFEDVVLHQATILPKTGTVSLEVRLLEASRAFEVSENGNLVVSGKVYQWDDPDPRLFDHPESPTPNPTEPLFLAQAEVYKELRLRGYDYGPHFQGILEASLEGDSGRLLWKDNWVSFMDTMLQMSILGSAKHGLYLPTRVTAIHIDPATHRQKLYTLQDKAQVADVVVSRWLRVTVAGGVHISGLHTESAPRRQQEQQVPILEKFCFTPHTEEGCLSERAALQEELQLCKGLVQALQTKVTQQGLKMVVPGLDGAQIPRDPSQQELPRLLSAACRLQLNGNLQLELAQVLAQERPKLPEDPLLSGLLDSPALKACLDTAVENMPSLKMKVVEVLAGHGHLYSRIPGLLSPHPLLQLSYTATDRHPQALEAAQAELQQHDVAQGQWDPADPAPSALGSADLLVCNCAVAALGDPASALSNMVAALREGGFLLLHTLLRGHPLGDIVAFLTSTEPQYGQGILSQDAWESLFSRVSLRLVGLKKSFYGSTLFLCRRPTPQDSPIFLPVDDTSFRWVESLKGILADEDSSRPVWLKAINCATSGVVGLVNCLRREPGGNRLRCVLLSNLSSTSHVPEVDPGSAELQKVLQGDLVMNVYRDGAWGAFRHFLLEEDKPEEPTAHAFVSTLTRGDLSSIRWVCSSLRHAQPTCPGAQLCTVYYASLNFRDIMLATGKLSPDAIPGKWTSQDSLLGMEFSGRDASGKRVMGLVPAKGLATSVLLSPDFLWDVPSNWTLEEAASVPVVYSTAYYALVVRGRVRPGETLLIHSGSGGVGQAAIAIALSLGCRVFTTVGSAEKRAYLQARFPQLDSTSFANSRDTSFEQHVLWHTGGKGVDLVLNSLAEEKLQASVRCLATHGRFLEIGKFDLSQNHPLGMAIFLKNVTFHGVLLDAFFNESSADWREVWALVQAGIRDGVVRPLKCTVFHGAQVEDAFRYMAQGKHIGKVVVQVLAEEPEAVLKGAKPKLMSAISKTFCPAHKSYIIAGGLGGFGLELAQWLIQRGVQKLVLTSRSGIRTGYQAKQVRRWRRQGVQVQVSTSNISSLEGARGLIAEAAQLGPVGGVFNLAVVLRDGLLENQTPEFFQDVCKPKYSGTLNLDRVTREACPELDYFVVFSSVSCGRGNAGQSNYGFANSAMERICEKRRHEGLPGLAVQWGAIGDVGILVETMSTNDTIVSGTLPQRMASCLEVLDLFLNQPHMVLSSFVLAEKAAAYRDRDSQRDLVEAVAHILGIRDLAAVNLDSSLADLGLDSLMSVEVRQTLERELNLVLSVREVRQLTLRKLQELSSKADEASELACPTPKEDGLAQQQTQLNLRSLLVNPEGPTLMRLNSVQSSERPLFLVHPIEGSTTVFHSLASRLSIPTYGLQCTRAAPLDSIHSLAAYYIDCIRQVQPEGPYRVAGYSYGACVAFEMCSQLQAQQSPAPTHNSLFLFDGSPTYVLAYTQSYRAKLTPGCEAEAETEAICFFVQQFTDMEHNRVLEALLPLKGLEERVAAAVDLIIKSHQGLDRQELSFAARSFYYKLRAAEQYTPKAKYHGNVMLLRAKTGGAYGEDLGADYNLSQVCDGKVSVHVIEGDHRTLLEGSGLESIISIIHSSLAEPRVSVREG
Chain of Eukaryotic translation initiation factor 4E (P63073 whole entry): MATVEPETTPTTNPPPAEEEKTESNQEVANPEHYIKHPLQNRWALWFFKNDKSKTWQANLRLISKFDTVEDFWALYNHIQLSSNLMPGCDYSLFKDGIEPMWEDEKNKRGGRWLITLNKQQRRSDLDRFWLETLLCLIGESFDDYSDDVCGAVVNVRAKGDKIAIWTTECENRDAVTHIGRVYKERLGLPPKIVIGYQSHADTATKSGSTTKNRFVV

As for `COc1ccc([N+](=O)[O-])cc1N(CC(O)Cn1nnc2ccccc21)S(=O)(=O)c1ccc(C)cc1` (stereo not given), the IC50 in assay [1] is 4.39 µM (active); in assay [3] it was 8.96 µM (active); in [4], 10.8 µM (active); in [5] it was 8.07 µM (active). Also, the EC50 in assay [2] was > 53 µM (inactive).

In the case of `COc1ccc(C(=O)O/N=C(\N)Cc2ccc(Cl)c(Cl)c2)cc1OC`, the IC50 in assay [3] is 5.1 µM (active).

For `CN(C)CCN(C(=O)CN1C(=O)c2ccccc2C1=O)c1nc2cc3c(cc2s1)OCCO3`, the EC50 in [6] is < 0.1 µM (active); in assay [7], > 60 µM (not active); in [9], 0.163 µM (active). The AC50 in assay [8] was 57.6 µM (active).

Turning to `Cc1ccc(-n2nnnc2SCc2nnc(-c3ccccc3Br)o2)c(C)c1`, the IC50 was 2.72 µM (active) in [1] and 10.7 µM (active) in assay [3]. In addition, in [2], the EC50 was > 53 µM (inactive).

`COc1ccc(NCc2ccc([N+](=O)[O-])s2)c(OC)c1`: the values for the IC50 in assay [10], in assay [11] and in assay [12] were 13.5 µM (active), 11.6 µM (active) and 34.4 µM (active), respectively.

`CCCCCCCCCCCCCCCC[n+]1ccc(C=NO)cc1`: the EC50 in assay [13] was 1.26 µM (active); in assay [14], 0.884 µM (active); in [19], > 3.3 µM (active). For the same molecule, the figures for the IC50 in [15], in [16] and in [17] were > 20 µM (inactive), 12.7 µM (active) and 67.7 µM (inactive), respectively. Also, the concentration at half-maximal activity (AC50) in assay [18] is 3.1 µM (active).

In the case of `CN(C)CCN(C(=O)c1ccco1)c1nc2cc3c(cc2s1)OCCO3`, in assay [8], the AC50 was 30.6 µM (active).

Consider `O=C1SCCN1N=Cc1ccc([N+](=O)[O-])o1`, for which the IC50 in assay [10] was > 100 µM (inactive); in [11] it was 61 µM (inactive).

As to `COCC(=O)N(C)C[C@H]1Oc2cc(-c3ccccc3F)ccc2S(=O)(=O)N([C@@H](C)CO)C[C@H]1C`, the half-maximal activity concentration (AC50) was 3.15 µM (active) in assay [20] and 8.35 µM (active) in [21].

As for `COc1ccccc1C#Cc1ccc2c(c1)O[C@H](CN(C)Cc1cccnc1)[C@@H](C)CN([C@@H](C)CO)S2(=O)=O`, the AC50 was 25.6 µM (active) in [20] and 0.944 µM (active) in assay [21].

Source of the values: ChEMBL document CHEMBL1201862, “PubChem BioAssay data set” (2004).
